# In article PMC9894920, “Development of an improved and specific inhibitor of NADPH oxidase 2 to treat traumatic brain injury” (Redox Biology, 2023):
# Assays:
# [1] = tested on: NOX1 reconstituted with p47phox and p67phox; assay: NOX1 reconstituted with cytosolic phox proteins (p47phox and p67phox), data not shown; type: cell-based
# Source text: Another experiment (data not shown) examined the potency of NCATS-SM7270 against NOX1 and NOX3 reconstituted with cytosolic phox proteins (p47phox and p67phox).
# NOX2 = target: T1, NOX2 (Homo sapiens, UniProt P04839); assay: Expi293 whole cell assay, NOX2 overexpression; type: cell-based; details: Expi293 cells expressing NOX2
# T1 sequence (P04839 2-570 limits assumed): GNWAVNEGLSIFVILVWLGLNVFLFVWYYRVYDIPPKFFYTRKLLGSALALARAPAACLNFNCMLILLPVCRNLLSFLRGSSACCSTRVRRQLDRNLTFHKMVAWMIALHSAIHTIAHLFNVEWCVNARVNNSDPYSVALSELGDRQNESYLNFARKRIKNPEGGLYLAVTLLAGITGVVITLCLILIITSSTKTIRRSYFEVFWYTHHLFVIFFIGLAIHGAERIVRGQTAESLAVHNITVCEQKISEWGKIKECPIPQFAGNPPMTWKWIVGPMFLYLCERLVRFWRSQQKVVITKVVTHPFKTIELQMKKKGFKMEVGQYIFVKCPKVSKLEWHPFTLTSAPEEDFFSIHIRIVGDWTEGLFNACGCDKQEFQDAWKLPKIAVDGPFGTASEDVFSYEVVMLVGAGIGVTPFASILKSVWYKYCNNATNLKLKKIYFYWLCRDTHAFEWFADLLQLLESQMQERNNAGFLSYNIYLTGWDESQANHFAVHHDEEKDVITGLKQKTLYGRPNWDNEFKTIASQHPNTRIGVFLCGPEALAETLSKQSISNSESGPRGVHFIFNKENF
# T1 sequence (P13498 2-195 partner limits assumed): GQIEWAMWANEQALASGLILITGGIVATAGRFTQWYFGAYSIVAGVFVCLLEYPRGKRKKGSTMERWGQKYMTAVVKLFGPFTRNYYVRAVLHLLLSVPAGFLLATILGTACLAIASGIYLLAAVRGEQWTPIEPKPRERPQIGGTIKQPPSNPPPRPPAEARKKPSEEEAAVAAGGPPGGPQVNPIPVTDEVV
# Procedure: Given concerns about previous assays for specific NOX family members [45] we here report the first use of the Expi293 Expression System (Thermo Scientific) to overexpress NOX1, 2, 3, 4, and 5 in excess of any endogenous NOX proteins present in these cells. Transfections were performed following the manufacturer's instructions using the plasmids for each NOX as described in Supplemental Table 2 except that the enhancer solution provided with the Expi293 system was not used because it promoted enzyme activation.
# After the times indicated in Supplemental Table 2, cells were washed and 50,000 added per well of a white 96-well plate (Greiner) along with 50 μM Luminol and 2.5 U horseradish peroxidase/mL in a volume of 90 μl for NOX1, NOX2, and NOX5. Inhibitors or vehicle controls were added and cells were incubated for 20 min at 37 °C prior to activation with the indicated stimuli. […] Chemiluminescence was measured every 2 min for 1 s per well at 37 °C in a Varioscan Multimode reader. AUC data were analyzed using GraphPad Prism using non-linear regression analysis after expressing relative to control alone (maximum ROS production).
smiles,measurement,setting,value
"Cn1ccc(S(=O)(=O)Nc2ccnc3c2c(-c2ccc4ccn(C)c4c2)cn3C2CC2)n1 [NCATS-SM7270, N-(1-cyclopropyl-3-(1-methyl-1H-indol-6-yl)-1H-pyrrolo [2,3-b]pyridin-4-yl)-1-methyl-1H-pyrazole-3-sulfonamide]",dose needed to observe inhibition of NOX1 versus NOX2,[1],~10 fold
same,improvement in potency toward NOX2 compared with GSK2795039,NOX2,2 fold
